Measurements: PMC12709667 (Journal of Clinical Pharmacology, 2025)

Key:
CYP3A4 = assay: clinical; conditions: human, plasma, oral; for AUC: geometric mean
BCRP = target: T1, BCRP (Homo sapiens, UniProt Q9UNQ0); assay: DDI perpetrator study: rosuvastatin probe; format: in vivo; conditions: human, plasma, oral, 10 mg; for AUC: rosuvastatin, probe alone (day 1), geometric mean
T1 sequence (Q9UNQ0 1-655): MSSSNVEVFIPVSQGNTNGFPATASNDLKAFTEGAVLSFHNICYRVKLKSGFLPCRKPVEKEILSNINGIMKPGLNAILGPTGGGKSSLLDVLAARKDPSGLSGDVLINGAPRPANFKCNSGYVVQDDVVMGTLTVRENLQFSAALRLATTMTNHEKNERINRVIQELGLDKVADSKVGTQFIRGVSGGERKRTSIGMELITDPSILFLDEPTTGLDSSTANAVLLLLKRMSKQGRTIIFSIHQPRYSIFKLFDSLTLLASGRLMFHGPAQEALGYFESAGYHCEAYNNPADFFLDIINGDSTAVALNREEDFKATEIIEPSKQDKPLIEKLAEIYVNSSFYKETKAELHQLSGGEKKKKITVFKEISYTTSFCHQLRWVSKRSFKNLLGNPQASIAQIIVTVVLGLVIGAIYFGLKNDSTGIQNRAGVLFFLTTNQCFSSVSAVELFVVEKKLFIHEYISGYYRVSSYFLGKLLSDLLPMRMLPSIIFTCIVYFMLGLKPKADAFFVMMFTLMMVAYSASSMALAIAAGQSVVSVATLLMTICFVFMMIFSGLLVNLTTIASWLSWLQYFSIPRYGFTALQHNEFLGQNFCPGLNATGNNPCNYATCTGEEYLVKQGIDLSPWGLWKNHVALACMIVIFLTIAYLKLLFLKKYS

UGT1A1 = target: T2, UGT1A1 (Homo sapiens, UniProt P22309); assay: DDI perpetrator study: dolutegravir probe; format: in vivo; conditions: human, plasma, oral, 50 mg; for AUC: dolutegravir, probe alone (day 1), geometric mean
T2 sequence (P22309 26-533): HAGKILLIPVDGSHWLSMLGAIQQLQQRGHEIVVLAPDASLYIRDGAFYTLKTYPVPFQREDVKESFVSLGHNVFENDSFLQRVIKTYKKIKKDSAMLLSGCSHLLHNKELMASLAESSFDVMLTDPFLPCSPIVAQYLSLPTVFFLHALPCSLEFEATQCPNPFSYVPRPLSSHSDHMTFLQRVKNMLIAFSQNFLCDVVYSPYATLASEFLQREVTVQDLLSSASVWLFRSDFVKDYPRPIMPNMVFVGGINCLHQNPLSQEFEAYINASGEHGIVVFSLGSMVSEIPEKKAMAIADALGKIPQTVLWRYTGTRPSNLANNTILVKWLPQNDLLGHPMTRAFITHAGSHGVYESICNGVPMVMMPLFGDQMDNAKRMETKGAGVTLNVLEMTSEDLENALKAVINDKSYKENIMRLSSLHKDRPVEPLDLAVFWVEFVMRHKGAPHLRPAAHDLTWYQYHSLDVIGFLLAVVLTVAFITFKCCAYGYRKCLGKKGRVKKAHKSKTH

CYP2C8 = target: T3, CYP2C8 (Homo sapiens, UniProt P10632); assay: DDI perpetrator study: repaglinide probe; format: in vivo; conditions: human, plasma, oral, 0.5 mg; for AUC: repaglinide, probe alone (day 1), geometric mean
T3 sequence (P10632 1-490): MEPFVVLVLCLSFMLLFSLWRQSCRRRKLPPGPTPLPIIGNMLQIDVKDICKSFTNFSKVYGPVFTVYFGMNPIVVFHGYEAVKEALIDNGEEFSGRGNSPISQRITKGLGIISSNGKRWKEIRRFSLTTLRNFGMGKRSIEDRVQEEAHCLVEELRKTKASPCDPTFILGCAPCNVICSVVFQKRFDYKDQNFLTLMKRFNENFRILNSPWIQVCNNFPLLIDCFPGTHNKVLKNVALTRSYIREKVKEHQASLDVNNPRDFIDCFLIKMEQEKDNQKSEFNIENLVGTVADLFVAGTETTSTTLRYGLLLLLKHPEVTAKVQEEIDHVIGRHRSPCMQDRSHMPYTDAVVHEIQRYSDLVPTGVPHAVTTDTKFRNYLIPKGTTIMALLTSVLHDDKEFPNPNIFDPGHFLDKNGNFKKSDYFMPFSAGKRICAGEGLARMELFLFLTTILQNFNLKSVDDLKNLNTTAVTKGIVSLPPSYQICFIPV

`Cc1ncc2n1-c1ccc(Cl)cc1C(c1ccccc1F)=NC2` [Midazolam] gave a Cmax (CYP3A4; 2.5 mg) of 8.42 ng/mL, an AUC (CYP3A4; 2.5 mg, AUC0‐inf, midazolam, probe alone (day 1)) of 39.5 ng·h/mL and an AUC (CYP3A4; 2.5 mg, AUC0‐last, midazolam, probe alone (day 1)) of 37.5 ng·h/mL. For the same compound, the AUC (CYP3A4; AUC0‐inf, midazolam + miricorilant (day 10)) was 34.7 ng·h/mL.

In the case of `CC(C)c1nc(N(C)S(C)(=O)=O)nc(-c2ccc(F)cc2)c1/C=C/[C@@H](O)C[C@@H](O)CC(=O)O` [Rosuvastatin], the Cmax (BCRP) is reported as 2.35 ng/mL, the AUC (BCRP; AUC0‐inf) is reported as 20.7 ng·h/mL and the AUC (BCRP; AUC0‐last) is reported as 17.1 ng·h/mL.

`C[C@@H]1CCO[C@H]2Cn3cc(C(=O)NCc4ccc(F)cc4F)c(=O)c(O)c3C(=O)N12` [Dolutegravir] was tested, and the Cmax (UGT1A1) was 2590 ng/mL, the AUC (UGT1A1; AUC0‐inf) was 46300 ng·h/mL and the AUC (UGT1A1; AUC0‐last) was 44600 ng·h/mL.

`CCOc1cc(CC(=O)N[C@@H](CC(C)C)c2ccccc2N2CCCCC2)ccc1C(=O)O` [Repaglinide] showed a Cmax (CYP2C8) of 2.94 ng/mL, an AUC (CYP2C8; AUC0‐inf) of 7.27 ng·h/mL and an AUC (CYP2C8; AUC0‐last) of 6.68 ng·h/mL.
